# From patent US9981925B2, “Substituted benzo[d][1,2,3]triazines as p70S6K inhibitors” (Merck Patent GmbH, priority 2012, dated 2018)
# What was measured:
# p70S6K (T412E mutant) = p70S6K (T412E mutant) (Homo sapiens (Human), UniProt P23443, T412E); assay: p70S6K enzyme assay; assay type: biochemical; details: 24 μM ATP, 90 min at 25° C., Caliper mobility shift
# Description: p70S6K inhibitor compounds were diluted and plated in 96 well plates. A reaction mixture including the following components were then added to the compound plate to initiate the enzyme reaction: p70S6K (3 nM, T412E mutant, Millipore) was mixed with 24 μM ATP in an assay buffer containing 100 mM Hepes (pH 7.5), 5 mM MgCl2, 1 mM DTT, 0.015% Brij and 1 μM of the substrate peptide FITC-AHA-[…]-OH (derived from the S6 ribosomal protein sequence, FITC=fluorescein isothiocyanate, AHA=6-aminohexanoic acid). The reaction was incubated for 90 min at 25° C., before the addition of 10 mM EDTA to stop the reaction. The proportion of substrate and product (phosphorylated) peptide was analyzed on a Caliper Life Sciences Lab Chip 3000, using a pressure of −1.4 psi, and upstream and downstream voltages of −3000 and −700, respectively. Product peaks were resolved before substrate peaks on the resulting chromatograms. To assess the inhibitory potential of the compounds, IC50 values were determined, as shown above.
# His-AKT (Full Length) = His-AKT (Full Length) (Homo sapiens (Human), UniProt P31749); assay: AKT/PKB kinase assay; assay type: biochemical; details: 160 μM ATP, 90 min at 25° C., Caliper mobility shift
# Description: In order to measure AKT inhibition in the Caliper Life Sciences LC3000, a TTP Mosquito liquid handling instrument was used to place 125 nl of the appropriate concentration of inhibitor in 100% DMSO (for a dose response curve calculation) into each well of a 384-well plate. To this reaction, the following components were added to a final volume of 12.5 μl: • 0.1 ng/μl His-AKT (Full Length) (Invitrogen, Part # P2999, Lot #641228C); • 160 μM ATP (Fluka, 02055); • 1 mM DTT (Sigma, D0632); • 1 mM MgCl2 (Sigma, M1028); • 1 μM substrate peptide (sequence FITC-AHA-[…]-NH2), synthesized by • Tufts Peptide Synthesis service; • 100 mM HEPES pH 7.5 (Calbiochem, 391338); and • 0.015% Brij-35 (Sigma, B4184).
# The reaction was incubated for 90 min at 25° C., and then stopped by the addition of 70 μl of Stop buffer (100 mM HEPES pH 7.5, 0.015% Brij-35, 10 mM EDTA (Sigma, E7889)). The plate was read on a Caliper LC 3000 in an Off-Chip mobility shift assay format, using the following parameters for a 12-sipper chip: screening pressure −2.3 psi, upstream voltage −500, and downstream voltage −3000. These conditions cause unphosphorylated substrate and phosphorylated product peptide to resolve as separate peaks allowing direct measurement of percentage of conversion of substrate to product. The percent conversion was plotted against concentration of inhibitor to produce a sigmoidal dose response curve, from which an IC50 was calculated.
# Sequence of p70S6K (T412E mutant) (P23443 whole entry T412E): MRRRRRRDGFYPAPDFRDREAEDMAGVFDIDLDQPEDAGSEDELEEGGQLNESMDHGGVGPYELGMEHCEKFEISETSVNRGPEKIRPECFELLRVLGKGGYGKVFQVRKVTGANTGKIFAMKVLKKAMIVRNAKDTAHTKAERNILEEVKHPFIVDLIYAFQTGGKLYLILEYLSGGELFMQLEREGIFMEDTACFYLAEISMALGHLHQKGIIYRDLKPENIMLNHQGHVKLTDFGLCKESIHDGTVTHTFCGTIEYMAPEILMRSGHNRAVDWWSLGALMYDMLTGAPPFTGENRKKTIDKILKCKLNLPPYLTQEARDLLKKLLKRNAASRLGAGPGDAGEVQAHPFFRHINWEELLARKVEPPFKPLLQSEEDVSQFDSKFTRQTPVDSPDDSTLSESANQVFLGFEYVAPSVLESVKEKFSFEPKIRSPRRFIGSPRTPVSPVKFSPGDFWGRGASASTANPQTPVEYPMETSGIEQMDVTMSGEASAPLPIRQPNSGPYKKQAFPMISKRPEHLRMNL
# Sequence of His-AKT (Full Length) (P31749 whole entry): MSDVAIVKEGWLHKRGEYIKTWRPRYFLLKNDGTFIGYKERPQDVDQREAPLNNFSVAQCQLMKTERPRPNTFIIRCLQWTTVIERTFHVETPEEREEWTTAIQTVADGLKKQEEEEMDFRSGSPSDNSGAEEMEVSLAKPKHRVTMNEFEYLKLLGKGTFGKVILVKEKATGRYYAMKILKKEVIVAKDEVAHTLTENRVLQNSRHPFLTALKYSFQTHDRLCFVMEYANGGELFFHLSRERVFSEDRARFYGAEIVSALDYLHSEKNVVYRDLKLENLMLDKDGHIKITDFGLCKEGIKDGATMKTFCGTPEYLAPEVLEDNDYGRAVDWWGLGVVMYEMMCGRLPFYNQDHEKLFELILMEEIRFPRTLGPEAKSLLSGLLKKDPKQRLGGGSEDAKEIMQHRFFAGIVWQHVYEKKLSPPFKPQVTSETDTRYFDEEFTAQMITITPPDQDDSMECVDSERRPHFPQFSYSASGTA
SMILES,IC50 (p70S6K (T412E mutant)) [nM],IC50 (His-AKT (Full Length)) [nM]
"CCNC[C@@H](Nc1ncnc2c(C(N)=O)ccnc12)c1cc(F)c(F)cc1F [Compound 58, 4-[(S)-2-Ethylamino-1-(2,4,5-trifluoro-phenyl)-ethylamino]-pyrido[3,2-d]pyrimidine-8-carboxylic Acid Amide]",25 to 100,101 to 500
"CNC[C@@H](Nc1ncnc2c(C(N)=O)ccnc12)c1cc(F)c(F)cc1F [Compound 60, 4-[(S)-2-Methylamino-1-(2,4,5-trifluoro-phenyl)-ethylamino]-pyrido[3,2-d]pyrimidine-8-carboxylic Acid Amide]",25 to 100,25 to 100
"CNC[C@@H](Nc1ncnc2c(C(N)=O)ccnc12)c1cccc(Cl)c1 [Compound 64, 4-[(S)-1-(3-Chloro-phenyl)-2-methylamino-ethylamino]-pyrido[3,2-d]pyrimidine-8-carboxylic Acid Amide]",< 25,< 25
"CNC[C@@H](Nc1ncnc2c(C(N)=O)ccnc12)c1cccc(Br)c1 [Compound 65, 4-[(S)-1-(3-Bromo-phenyl)-2-methylamino-ethylamino]-pyrido[3,2-d]pyrimidine-8-carboxylic Acid Amide]",< 25,< 25
"CNC[C@@H](Nc1ncnc2c(C(N)=O)ccnc12)c1cccc(F)c1 [Compound 66, 4-[(S)-1-(3-Fluoro-phenyl)-2-methylamino-ethylamino]-pyrido[3,2-d]pyrimidine-8-carboxylic Acid Amide]",< 25,< 25
"NC(=O)c1ccnc2c(N[C@H](CN3CCC3)c3cccc(F)c3)ncnc12 [Compound 68, 4-[(S)-2-Azetidin-1-yl-1-(3-fluoro-phenyl)-ethylamino]-pyrido[3,2-d]pyrimidine-8-carboxylic Acid Amide]",< 25,25 to 100
"NC(=O)c1ccnc2c(N[C@H](CN3CC(O)C3)c3ccc(Cl)c(C(F)(F)F)c3)ncnc12 [Compound 70, 4-[(S)-1-(4-Chloro-3-trifluoromethyl-phenyl)-2-(3-hydroxy-azetidin-1-yl)-ethylamino]-pyrido[3,2-d]pyrimidine-8-carboxylic Acid Amide]",< 25,25 to 100
"NC(=O)c1ccnc2c(N[C@@H](CN3CCC3)c3ccc(Cl)c(C(F)(F)F)c3)ncnc12 [Compound 71, 4-[(R)-2-Azetidin-1-yl-1-(4-chloro-3-trifluoromethyl-phenyl)-ethylamino]-pyrido[3,2-d]pyrimidine-8-carboxylamide]",501 to 1000,> 1000
"NC(=O)c1ccnc2c(N[C@H](CN3CCC3)c3ccc(OC(F)(F)F)c(Cl)c3)ncnc12 [Compound 73, 4-[(S)-2-Azetidin-1-yl-1-(3-chloro4-trifluoromethoxy-phenyl)-ethylamino]-pyrido[3,2-d]pyrimidine-8-carboxylamide]",< 25,25 to 100
"CNC[C@@H](Nc1ncnc2c(C(N)=O)ccnc12)c1ccc(OC(F)(F)F)c(Cl)c1 [Compound 74, 4-[(S)-1-(3-Chloro-4-trifluoromethoxy-phenyl)-2-methylamino-ethylamino]-pyrido[3,2-d]pyrimidine-8-carboxylamide]",< 25,25 to 100

# Now from value to compound:
IC50 (p70S6K (T412E mutant)) [nM],IC50 (His-AKT (Full Length)) [nM],SMILES
< 25,< 25,"CCNC[C@@H](Nc1ncnc2c(C(N)=O)ccnc12)c1ccc(C(F)(F)F)c(C(F)(F)F)c1 [Compound 59, 4-[(S)-1-(3,4-Bis-trifluoromethyl-phenyl)-2-ethylamino-ethylamino]-pyrido[3,2-d]pyrimidine-8-carboxylic Acid Amide]"
< 25,< 25,"NC(=O)c1ccnc2c(N[C@H](CN3CCC3)c3ccc(C(F)(F)F)c(C(F)(F)F)c3)ncnc12 [Compound 63, 4-[(S)-2-Azetidin-1-yl-1-(3,4-bis-trifluoromethyl-phenyl)-ethylamino]-pyrido[3,2-d]pyrimidine-8-carboxylic Acid Amide]"
< 25,< 25,"CNC[C@@H](Nc1ncnc2c(C(N)=O)ccnc12)c1ccc(F)c(C)c1 [Compound 67, 4-[(S)-1-(4-Fluoro-3-methyl-phenyl)-2-methylamino-ethylamino]-pyrido[3,2-d]pyrimidine-8-carboxylic Acid Amide]"
< 25,25 to 100,"NC(=O)c1ccnc2c(N[C@H](CN3CC(F)C3)c3ccc(Cl)c(C(F)(F)F)c3)ncnc12 [Compound 69, 4-[(S)-1-(4-Chloro-3-trifluoromethyl-phenyl)-2-(3-fluoro-azetidin-1-yl)-ethylamino]-pyrido[3,2-d]pyrimidine-8-carboxylic Acid Amide]"
< 25,< 25,"CNC[C@@H](Nc1ncnc2c(C(N)=O)ccnc12)c1ccc(Cl)c(C(F)(F)F)c1 [Compound 72, 4-[(S)-1-(4-Chloro-3-trifluoromethyl-phenyl)-2-methylamino-ethylamino]-pyrido[3,2-d]pyrimidine-8-carboxylic Acid Amide]"
< 25,< 25,"CNC[C@@H](Nc1ncnc2c(C(N)=O)ccnc12)c1ccc(Cl)c(Cl)c1 [Compound 75, 4-[(S)-1-(3,4-Dichloro-phenyl)-2-methylamino-ethylamino]-pyrido[3,2-d]pyrimidine-8-carboxylamide]"
< 25,< 25,"CNC[C@@H](Nc1ncnc2c(C(N)=O)ccnc12)c1ccc(C)c(C(F)(F)F)c1 [Compound 76, 4-[(S)-2-Methylamino-1-(4-methyl-3-trifluoromethyl-phenyl)-ethylamino]-pyrido[3,2-d]pyrimidine-8-carboxylic Acid Amide]"
